Where two headings read alike, the source gives them in different places.
Tested on: HCV replicon
Assay: HCV replicon replication assay (NPT ELISA) in Huh-7 replicon-containing cells
Format: cell-based
Details: Hepatitis C virus
Method: Compounds claimed herein are tested for the ability to inhibit viral replication of the Hepatitis C replicon in cultured cells in which the HCV replicon construct has been incorporated. The HCV replicon system was described by Bartenschlager, et. al (Science, 285, pp. 110-113 (1999)). The replicon system is predictive of in vivo anti-HCV activity; compounds that are active in humans uniformly evidence activity in the replicon assay.
In this assay HCV replicon containing cells are treated with different concentrations of the test compound to ascertain the ability of the test compound to suppress replication of the HCV replicon. As a positive control, HCV replicon-containing cells are treated with different concentrations of interferon alpha, a known inhibitor of HCV replication. The replicon assay system includes Neomycin Phosphotransferase (NPT) as a component of the replicon itself in order to detect the transcription of replicon gene products in the host cell. Cells in which the HCV replicon is actively replicating have high levels of NPT; the level of NPT is proportional to HCV replication. […] The NPT level of each sample is measured using a captured ELISA.
A protocol for testing compounds for the ability to inhibit viral replication of the Hepatitis C replicon cultured cells in which the replicon construct has been incorporated, follows.
The HCV replicon contains, 5′-3′, the HCV-IRES, the neomycin phosphotransferase (neo) gene, the IRES of encephalomyocarditis virus, which directs translation of HCV sequences NS3 to NS5B, and the 3′-NTR. The sequence of the HCV replicon has been deposited in GenBank (Accession no. AJ242652).
The replicon is transfected into Huh-7 cells using standard methods such as electroporation.
The equipment and materials include, but are not limited to, Huh-7 HCV replicon-containing cells, maintenance media (DMEM (Dulbecco's modified Eagle media) supplemented with 10% FBS, L-glutamine, non-essential amino acids, penicillin (100 units/ml), streptomycin (100 micrograms/ml), and 500 micrograms/ml of Geneticin (G418), screening media (DMEM supplemented with 10% FBS, L-glutamine, non-essential amino acids, penicillin (100 units/ml) and streptomycin (100 micrograms/ml)), 96 well tissue culture plates (flat bottom), 96 well plates (U bottom for drug dilution), Interferon alpha for positive control, fixation reagent (such as methanol: acetone), primary antibody (rabbit anti-NPTII), secondary antibody: Eu-N1 l, and enhancement solution.
HCV replicon-containing cells support high levels of viral RNA replicon replication when their density is suitable. Over-confluency causes decreased viral RNA replication. Therefore, cells must be kept growing in log phase in the presence of 500 micrograms/ml of G418. Generally, cells should be passed twice a week at 1: 4-6 dilution. Cell maintenance is conducted as follows:
HCV replicon-containing cells are examined under a microscope to ensure that cells growing well. Cells are rinsed once with PBS and 2 ml trypsin is added. The cell/trypsin mixture is incubated at 37° C. in a CO2 incubator for 3-5 minutes. After incubation 10 ml of complete media is added to stop the trypsinization reaction. Cells are blown gently, put into a 15 ml tube, and spun at 1200 rpm for 4 minutes. The trypsin/medium solution is removed. Medium (5 ml) is added and the cells are mixed carefully. The cells are counted.
The cells are then seeded onto 96-well plates at a density of 6000-7500 cells/100 microliters/well (6-7.5×10^5 cells/10 ml/plate). The plates are then incubated at 37° C. in a 5% CO2 incubator.
Cells are examined under a microscope approximated 24 hours after seeding and prior to adding drugs. If counting and dilution were performed correctly, cells are 60-70% confluent and nearly all cells should attach and spread evenly in the well.
HCV replicon-containing cells are rinsed with once PBS once; 2 mls of trypsin are then added. Cells are incubated at 37° C. in a 5% CO2 incubator for 3-5 minutes. […]

[1] = 72 h, HCV replicon in Huh-7 cells, three days incubation, read-out: EC50

Row | SMILES | EC50 [1] | EC50 (Huh-7)
1 | C=CC1CC1(NC(=O)[C@@H]1C[C@@H](Oc2cc(-c3ccccc3)nc3cc(OC)ccc23)CN1C(=O)[C@@H](CC(=O)N1CCc2ccccc2C1)C(C)(C)C)C(=O)NS(=O)(=O)C1CC1 (stereo partly drawn) [Compound 40, (2S,4R)-1-((S)-2-tert-butyl-4-(3,4-dihydro-isoquinolin-2(1H)-yl)-4-oxobutanoyl)-N-(1-(cyclopropyl-sulfonyl-carbamoyl)-2-vinylcyclopropyl)-4-(7-methoxy-2-phenylquinolin-4-yloxy)pyrrolidine-2-carboxamide] | < 1 µM | ≤ 10 µM
2 | C=CC1CC1(NC(=O)[C@@H]1C[C@@H](Oc2cc(-c3ccccc3)nc3cc(OC)ccc23)CN1C(=O)[C@@H](CC(=O)N1CCCc2ccccc21)C(C)(C)C)C(=O)NS(=O)(=O)C1CC1 (stereo partly drawn) [Compound 41, (2S,4R)-1-((S)-2-tert-butyl-4-(3,4-dihydroquinolin-1(2H)-yl)-4-oxobutanoyl)-N-(1-(cyclopropyl-sulfonyl-carbamoyl)-2-vinylcyclopropyl)-4-(7-methoxy-2-phenylquinolin-4-yloxy)pyrrolidine-2-carboxamide] | < 1 µM | –
3 | C=CC1CC1(NC(=O)[C@@H]1C[C@@H](Oc2cc(-c3ccccc3)nc3cc(OC)ccc23)CN1C(=O)[C@@H](CC(=O)N1CCCCC1C(N)=O)C(C)(C)C)C(=O)NS(=O)(=O)C1CC1 (stereo partly drawn) [Compound 42, 1-((3S)-3-((2S,4R)-2-(1-(cyclopropyl-sulfonyl-carbamoyl)-2-vinylcyclopropyl-carbamoyl)-4-(7-methoxy-2-phenylquinolin-4-yloxy)pyrrolidine-1-carbonyl)-4,4-dimethylpentano-yl)piperidine-2-carboxamide] | < 1 µM | –
4 | C=CC1CC1(NC(=O)[C@@H]1C[C@@H](Oc2cc(-c3ccccc3)nc3cc(OC)ccc23)CN1C(=O)[C@@H](CC(=O)N1CCC(CCC)CC1)C(C)(C)C)C(=O)NS(=O)(=O)C1CC1 (stereo partly drawn) [Compound 43, (2S,4R)-1-((S)-2-tert-butyl-4-oxo-4-(4-propylpiperidin-1-yl)butanoyl)-N-(1-(cyclopropyl-sulfonyl-carbamoyl)-2-vinylcyclopropyl)-4-(7-methoxy-2-phenylquinolin-4-yloxy)pyrrolidine-2-carboxamide] | 1 to 10 µM | –
5 | C=CC1CC1(NC(=O)[C@@H]1C[C@@H](Oc2cc(-c3ccccc3)nc3cc(OC)ccc23)CN1C(=O)[C@@H](CC(=O)N1CCCC(C)C1)C(C)(C)C)C(=O)NS(=O)(=O)C1CC1 (stereo partly drawn) [Compound 44, (2S,4R)-1-((2S)-2-tert-butyl-4-(3-methylpiperidin-1-yl)-4-oxobutanoyl)-N-(1-(cyclopropyl-sulfonyl-carbamoyl)-2-vinylcyclopropyl)-4-(7-methoxy-2-phenylquinolin-4-yloxy)pyrrolidine-2-carboxamide] | 1 to 10 µM | –
6 | C=CC1CC1(NC(=O)[C@@H]1C[C@@H](Oc2cc(-c3ccccc3)nc3cc(OC)ccc23)CN1C(=O)[C@@H](CC(=O)N1CCCC(C(N)=O)C1)C(C)(C)C)C(=O)NS(=O)(=O)C1CC1 (stereo partly drawn) [Compound 45, 1-((3S)-3-((2S,4R)-2-(1-(cyclopropyl-sulfonylcarbamoyl)-2-vinylcyclopropyl-carbamoyl)-4-(7-methoxy-2-phenylquinolin-4-yloxy)pyrrolidine-1-carbonyl)-4,4-dimethylpentano-yl)piperidine-3-carboxamide] | 1 to 10 µM | –
7 | C=CC1CC1(NC(=O)[C@@H]1C[C@@H](Oc2cc(-c3ccccc3)nc3cc(OC)ccc23)CN1C(=O)C[C@H](C(=O)NC1CCCC1)C(C)(C)C)C(=O)NS(=O)(=O)C1CC1 (stereo partly shown) [Compound 46] | < 1 µM | –
8 | C=CC1CC1(NC(=O)[C@@H]1C[C@@H](Oc2cc(-c3ccccc3)nc3cc(OC)ccc23)CN1C(=O)C[C@H](C(=O)N1C(=O)OC[C@@H]1Cc1ccccc1)C(C)(C)C)C(=O)NS(=O)(=O)C1CC1 (stereo partly drawn) [Compound 47, (2S,4R)-1-((S)-3-((S)-4-benzyl-2-oxooxazolidine-3-carbonyl)-4,4-dimethyl-pentanoyl)-N-(1-(cyclopropyl-sulfonylcarbamoyl)-2-vinylcyclopropyl)-4-(7-methoxy-2-phenylquinolin-4-yloxy)pyrrolidine-2-carboxamide] | 1 to 10 µM | –
9 | C=C[C@@H]1C[C@]1(NC(=O)[C@@H]1C[C@@H](Oc2cc(-c3ccccc3)nc3cc(OC)ccc23)CN1C(=O)[C@@H](CC(=O)N1CCOCC1)C(C)(C)C)C(=O)NS(=O)(=O)C1CC1 [Compound 48, (2S,4R)-1-((S)-2-tert-butyl-4-morpholino-4-oxobutanoyl)-N-((1R,2S)-1-(cyclo-propylsulfonyl-carbamoyl)-2-vinylcyclopropyl)-4-(7-methoxy-2-phenylquinolin-4-yloxy)pyrrolidine-2-carboxamide] | < 1 µM | –
10 | C=C[C@@H]1C[C@]1(NC(=O)[C@@H]1C[C@@H](Oc2cc(-c3ccccc3)nc3cc(OC)ccc23)CN1C(=O)[C@@H](CC(=O)NC1CCCC1)C(C)(C)C)C(=O)NS(=O)(=O)C1CC1 [Compound 49, (2S,4R)-1-((S)-2-tert-butyl-4-(cyclopentylamino)-4-oxobutanoyl)-N-((1R,2S)-1-(cyclopropyl-sulfonylcarbamoyl)-2-vinylcyclopropyl)-4-(7-methoxy-2-phenylquinolin-4-yloxy)pyrrolidine-2-carboxamide] | < 1 µM | –
11 | C=CC1CC1(NC(=O)[C@@H]1C[C@@H](OC(=O)N2Cc3cccc(F)c3C2)CN1C(=O)[C@@H](CC(=O)N1CCCCC1)C(C)(C)C)C(=O)NS(=O)(=O)C1CC1 (stereo partly drawn) [Compound 50, (3R,5S)-1-((S)-2-tert-butyl-4-oxo-4-(piperidin-1-yl)butanoyl)-5-(1-(cyclopropyl-sulfonylcarbamoyl)-2-vinylcyclopropyl-carbamoyl)pyr-rolidin-3-yl 4-fluoroisoindoline-2-carboxylate] | < 1 µM | –
12 | C=CC1CC1(NC(=O)C1C[C@@H](Oc2cc(-c3ccccc3)nc3cc(OC)ccc23)CN1C(=O)[C@H](CC(=O)N1CCCCC1)CC(C)C)C(=O)NS(=O)(=O)C1CC1 (stereo partly drawn) [Compound 51, (4R)-N-(1-(cyclopropyl-sulfonylcarbamoyl)-2-vinylcyclopropyl)-4-(7-methoxy-2-phenylquinolin-4-yloxy)-1-((S)-4-methyl-2-(2-oxo-2-(piperidin-1-yl)ethyl)pentano-yl)pyrrolidine-2-carboxamide] | 1 to 10 µM | –
13 | C=CC1CC1(NC(=O)C1C[C@@H](Oc2cc(-c3ccccc3)nc3cc(OC)ccc23)CN1C(=O)[C@@H](CC(=O)N1CCCCC1)Cc1ccccc1)C(=O)NS(=O)(=O)C1CC1 (stereo partly drawn) [Compound 52, (4R)-1-((R)-2-benzyl-4-oxo-4-(piperidin-1-yl)butanoyl)-N-(1-(cyclopropyl-sulfonylcarbamoyl)-2-vinylcyclopropyl)-4-(7-methoxy-2-phenylquinolin-4-yloxy)pyrrolidine-2-carboxamide] | < 1 µM | –
14 | C=CC1CC1(NC(=O)C1C[C@@H](Oc2cc(-c3ccccc3)nc3cc(OC)ccc23)CN1C(=O)[C@@H](CC(=O)N1CCCCC1)C1CCCCC1)C(=O)NS(=O)(=O)C1CC1 (stereo partly drawn) [Compound 53, (4R)-1-((S)-2-cyclohexyl-4-oxo-4-(piperidin-1-yl)butanoyl)-N-(1-(cyclopropyl-sulfonylcarbamoyl)-2-vinylcyclopropyl)-4-(7-methoxy-2-phenylquinolin-4-yloxy)pyrrolidine-2-carboxamide] | < 1 µM | –
15 | C=CC1CC1(NC(=O)C1C[C@@H](Oc2cc(-c3ccccc3)nc3cc(OC)ccc23)CN1C(=O)[C@@H](CC(=O)N1CCCCC1)CC1CCCCC1)C(=O)NS(=O)(=O)C1CC1 (stereo partly drawn) [Compound 54, (4R)-1-((R)-2-(cyclohexylmethyl)-4-oxo-4-(piperidin-1-yl)butanoyl)-N-(1-(cyclopropyl-sulfonylcarbamoyl)-2-vinylcyclopropyl)-4-(7-methoxy-2-phenylquinolin-4-yloxy)pyrrolidine-2-carboxamide] | < 1 µM | –

— patent publication US9133115B2 (ACHILLION PHARMACEUTICALS, INC., priority 2008, dated 2015)
